Experimental data reported in PubChem BioAssay (NCI).
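How tested: cells in 96-well plates exposed to compound for 48 hours at five concentrations. GI50 = concentration required for 50% inhibition of growth. At the TGI there is no net growth.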

Experiments:
Experiment in all cases: growth of human tumour cells (NCI), 48 h
A498 renal = system: A498 renal
A549 NSCLC = system: A549 NSCLC
HCC-2998 colon = system: HCC-2998 colon
HOP-62 NSCLC = system: HOP-62 NSCLC
NCI-H522 lung = system: NCI-H522 lung
OVCAR-4 ovarian = system: OVCAR-4 ovarian
OVCAR-5 ovarian = system: OVCAR-5 ovarian
NCI/ADR-RES ovarian = system: NCI/ADR-RES ovarian
PC-3 prostate = system: PC-3 prostate
SR leukemia = system: SR leukemia

SMILES | TGI (A498 renal) | TGI (A549 NSCLC) | TGI (HCC-2998 colon) | TGI (HOP-62 NSCLC) | TGI (NCI-H522 lung) | TGI (OVCAR-4 ovarian) | TGI (OVCAR-5 ovarian) | GI50 (A498 renal) | GI50 (A549 NSCLC) | GI50 (HCC-2998 colon) | GI50 (HOP-62 NSCLC) | GI50 (NCI-H522 lung) | GI50 (OVCAR-4 ovarian) | GI50 (OVCAR-5 ovarian) | GI50 (NCI/ADR-RES ovarian) | TGI (NCI/ADR-RES ovarian) | GI50 (PC-3 prostate) | TGI (PC-3 prostate) | GI50 (SR leukemia) | TGI (SR leukemia)
OC/C=C(\I)CCCOCOCc1ccccc1 | > 100 µM | > 100 µM | > 100 µM | > 100 µM | 80.2 µM | > 100 µM | > 100 µM | – | – | – | – | – | – | – | – | – | – | – | – | –
C/C=C1/C(=C/c2[nH]c(/C=c3\[nH]/c(=C/C4=NC(=O)C(CC)=C4C)c(C)c3CCC(=O)O)c(CCC(=O)O)c2C)NC(=O)C1C (centres undefined) | > 150 µg/mL | > 150 µg/mL | > 150 µg/mL | > 150 µg/mL | > 150 µg/mL | > 150 µg/mL | > 150 µg/mL | > 150 µg/mL | > 150 µg/mL | > 150 µg/mL | > 150 µg/mL | > 150 µg/mL | > 150 µg/mL | > 150 µg/mL | – | – | – | – | – | –
Cn1c2ccccc2c2c3[nH]c(=O)[nH]c(=O)c3c3c4ccccc4n(C)c3c21 | 4.37 µM | > 100 µM | > 100 µM | 5.83 µM | 12.8 µM | – | > 100 µM | 0.0475 µM | 2.86 µM | 8.25 µM | 2.03 µM | 1.9 µM | – | 3 µM | 2.89 µM | 17 µM | 30.1 µM | > 100 µM | – | –
COc1cc2c(c(OC)c1)C1(CC(CC#N)C2)SCCS1 (centres undefined) | > 100 µM | > 100 µM | > 100 µM | > 100 µM | 4.69 µM | > 100 µM | – | – | – | – | – | – | – | – | – | – | – | – | – | –
CCC(=O)c1c(C(F)(F)F)n([O-])c2ccc(C)cc2[n+]1=O | – | > 50 µM | 21.9 µM | > 50 µM | 11.2 µM | > 50 µM | 41.6 µM | – | 11.3 µM | 5.92 µM | 11.3 µM | 1.62 µM | 24 µM | 3.43 µM | 6.14 µM | 36.5 µM | 2.27 µM | 15.1 µM | 0.675 µM | > 50 µM
CCCS(=O)(=O)/C(=C(\c1ccc(Br)cc1)S(=O)(=O)CCC)c1ccc(Br)cc1 | > 10 µM | > 10 µM | > 10 µM | > 10 µM | > 10 µM | > 10 µM | > 10 µM | – | – | – | – | – | – | – | – | – | – | – | – | > 10 µM
Cc1[nH]c2ccccc2c1C1Cc2ccccc2N1C(=O)/C(Cl)=C/c1ccccc1 (centres undefined) | > 100 µM | > 100 µM | > 100 µM | > 100 µM | > 100 µM | > 100 µM | > 100 µM | – | – | – | – | – | – | – | – | – | – | – | – | > 100 µM
N#C/C(=C\c1cc2ccccc2c2ccccc12)c1ccccc1 | 38.3 µM | > 100 µM | 59.2 µM | 17.6 µM | > 29.9 µM | 34.6 µM | 98.6 µM | – | – | – | – | – | – | – | – | – | – | – | – | 7.91 µM
COc1cccc(N2C(=O)[C@H]3CC(C)c4c([nH]c5ccccc45)[C@H]3C2=O)c1 (some centres undefined) | > 100 µM | > 100 µM | > 100 µM | 42.5 µM | > 100 µM | – | – | – | – | – | – | – | – | – | – | – | – | – | – | –
COC(=O)c1cc(C)c(C)c2c1NC(=O)CNC2=O | > 100 µM | > 100 µM | > 100 µM | > 100 µM | – | > 100 µM | – | – | – | – | – | – | – | – | – | – | – | – | – | > 100 µM
Fc1ccc(C2SCc3nc4ccccc4n32)cc1Cl (centres undefined) | > 100 µM | > 100 µM | 37.2 µM | 55.9 µM | 35.2 µM | > 100 µM | 66.6 µM | – | – | – | – | – | – | – | – | – | – | – | – | > 100 µM
CCCCCCC(=O)C/C(=N/NC(N)=S)C(=O)NC1C2CC3CC(C2)CC1C3 (centres undefined) | – | > 100 µM | > 100 µM | > 100 µM | – | > 100 µM | > 100 µM | – | – | – | – | – | – | – | – | – | – | – | – | –
Cc1ccc(-c2cc(=O)c3cc(C)c(C)c(C(=O)O)c3o2)cc1C | – | > 100 µM | > 100 µM | > 100 µM | > 100 µM | > 100 µM | > 100 µM | – | – | – | – | – | – | – | – | – | – | – | – | > 100 µM
Cc1ccc2[nH]c(C(=O)NN3C(=O)C(C)SC34CCCC(C)C4)c(-c3ccccc3)c2c1 (centres undefined) | > 100 µM | > 100 µM | > 100 µM | > 100 µM | > 100 µM | > 100 µM | > 100 µM | > 100 µM | 30.9 µM | 76.6 µM | > 100 µM | 78 µM | 50 µM | > 100 µM | – | – | 55.1 µM | > 100 µM | – | –
COc1cc2c(c(OC)c1OC)-c1c(cc3c(c1OC)OCO3)C1OC2C(C)C1C (centres undefined) (tested in a mixture with another compound) | > 100 µM | > 100 µM | > 100 µM | > 100 µM | > 100 µM | > 100 µM | > 100 µM | – | – | – | – | – | – | – | – | – | – | > 100 µM | – | > 100 µM
Cc1nc2ccccc2c(=O)n1-c1ccccc1F | > 100 µM | > 100 µM | > 100 µM | > 100 µM | > 100 µM | > 100 µM | > 100 µM | – | – | – | – | – | – | – | – | – | – | – | – | –
CC(C)(C)c1ccc(O)c(CN(Cc2cc(C(C)(C)C)ccc2O)c2ccccc2)c1 | 28.1 µM | 35.9 µM | – | 47.6 µM | 26.9 µM | 61.8 µM | 31.8 µM | – | – | – | – | – | – | – | – | 37.6 µM | – | 42.1 µM | – | 38.1 µM
CCCCOC(=O)NC(=O)c1cn(C2CCCCC2)c(=O)[nH]c1=O | 49 µM | > 100 µM | > 100 µM | 65.9 µM | > 100 µM | 48.6 µM | > 100 µM | – | – | – | – | – | – | – | – | – | – | – | – | –
CCCCN1CSC(=S)N(Cc2ccccc2)C1 | > 100 µM | > 100 µM | – | > 100 µM | > 71.8 µM | > 100 µM | > 100 µM | – | – | – | – | – | – | – | – | > 100 µM | – | > 100 µM | – | > 100 µM
C/C(=C1/CCC/C(=C(/C)c2ccccc2)C1=O)c1ccccc1 | – | > 100 µM | > 100 µM | – | > 100 µM | > 100 µM | > 100 µM | – | – | – | – | – | – | – | – | – | – | – | – | 43.5 µM
CC(C)N1CN(C(C(=O)N[C@@H]2C(=O)N3C2SC(C)(C)C3C(=O)O)c2ccccc2)CSC1=S (some centres undefined) | > 100 µM | – | – | > 100 µM | 72.1 µM | > 100 µM | > 100 µM | – | – | – | – | – | – | – | – | – | – | – | – | –
COc1ccc(/C=C\c2cc(OC)c(OC)c(OC)c2)cc1OC(=O)NCCN(C)C | 0.0303 µM | > 41.3 µM | 0.487 µM | > 100 µM | 0.000483 µM | – | – | – | < 0.028 µM | < 0.0469 µM | – | – | – | – | – | – | – | – | – | –
O=C(Nc1ccc(Cl)cc1Cl)C(=O)C(C(=O)c1ccncc1)C1OC(=O)c2ccccc21 (centres undefined) | > 100 µM | > 100 µM | > 100 µM | > 100 µM | > 100 µM | > 100 µM | > 100 µM | – | – | – | – | – | – | – | – | – | – | – | – | > 100 µM
